The text below walks through data of patent EP3822285A1, “VARIANT NISIN PEPTIDES” (University College Cork-National University of Ireland, Cork, priority 2019, dated 2021).

Converted amounts (≈) assume the structure as drawn. “And” between values parts separate entries of the source, which are not always exact repeats. Equal values may be shown once. Marks after values point to notes of the source that are not given here.

Holding throughout (assay type): cell-based
One test concerns T. rehai. Put plainly: Minimum inhibitory concentration assay (Thermus). The settings on record: for MIC: pure peptide, mean of triplicate assays. The procedure: (§1) Minimum inhibitory concentration (MIC) determinations for gram negative Thermus strains were carried out in triplicate in round bottom microtitre plates (Corning). 96 well microtitre plates were pre-treated with bovine serum albumin (BSA) prior to addition of the peptides. Briefly, to each well of the microtire plates 200 µl of d.H2O (filtered with 0.2 µm filter) containing 1% (w/w) BSA was added and incubated at 37°C for 30 mins. The wells were washed with 200 µl of IX phosphate buffered saline (PBS) for 2 times after removing 1% BSA d.H2O. 100 µl of growth media, i.e., Castenholz, was added to each well. […] Target strains were grown overnight as per conditions mention above, 0.5 ml of overnight was subcultured in to 10 mls of fresh Castenholz medium and allowed to grow to an OD600 of ∼0.5. 20µl of this subculture was added to 980µl of media, 150µl of this dilution added to 14.85 ml of growth media. 100µl of this dilution added to each well resulting in a final inoculum of ∼10^5 cfu/ml in 200µl. The plates were incubated at 55° C for 3 days and the MIC was determined as the lowest concentration at which no growth was visible.
(§2) The bioactivity of cell-free supernatant can be influenced by altered diffusion rates, solubility, production or specific activity. To determine to what extent, if any, the bioactivity noted above is due to increased specific activity, nisin A (control) and the derivatives were purified and their molecular weights confirmed by MALDI TOF mass spectrometry (Table: 6) (Figure: 4). These peptides were used to perform minimum inhibitory concentration assays against six Thermus strains, i.e., T. thermophilus HB27, T. scotoductus SE-1, T. rehai, T. oshimai, T. aquaticus and T. brockianus.

The test system of a further test is T. aquaticus. Description: Minimum inhibitory concentration assay (Thermus). The following applies: for MIC: pure peptide, mean of triplicate assays. The procedure:
as §1, §2

For a further test, the system named is T. thermophilus HB27. Put plainly: Minimum inhibitory concentration assay (Thermus). The settings on record: for MIC: pure peptide, mean of triplicate assays. Here is the method:
as §1, §2

A further test relates to T. brockianus. Description: Minimum inhibitory concentration assay (Thermus). The settings on record: pure peptide, mean of triplicate assays. Here is the method:
as §1, §2

The next test has as its system T. oshimai. Description: Minimum inhibitory concentration assay (Thermus). The settings on record: for MIC: pure peptide, mean of triplicate assays. Here is the method: as §1, §2
In a further test the test system is T. scotoductus SE-1. Description: Minimum inhibitory concentration assay (Thermus). The following applies: for MIC: pure peptide, mean of triplicate assays. The procedure:
as §1, §2

Test [1] has as its system Thermus thermophilus HB27. Put plainly: Agar diffusion assay with cell free supernatant of producing strains. The settings on record: zone diameter relative to Nisin A wild type (100). Here is the method: (§3) Agar diffusion assays were carried out in triplicate using nisin producing and indicator (T. thermophilus HB27 and T. scotoductus Se-1) strains. Both the producer and indicator strains were cultured as per conditions described above. One ml of overnight culture of indicators were added to 50ml of molten Castenholz agar, briefly swirled and poured. Wells were made using sterile glass pipette. To generate cell free supernatant from nisin producing strains, 10 mls of overnight cultures of the strains were centrifuged at 950g for 20 mins. The cell free supernatant was transferred to a sterile tube. 50 µl of cell free supernatant was added to wells described above. Plates were incubated at 55°C for 3 days and the zone of clearance measured.
(§4) The cell free supernatant of nisin A and nisin variant producing L. lactis was used to determine the bioactivity of these lantibiotics against T. thermophilus HB27 and T. scotoductus SE-1 using agar diffusion assays, with the zone of clearance representing the bioactivity of the producing strain (i.e., representing a combination of the amount of the peptide produced and the specific activity of that peptide). […] Among the variants tested were those with altered N-terminal domains. The N-terminal domain of nisin is important for binding with the pyrophosphate moiety of lipid II to mediate pore formation in the cell membrane. Lysine (K) at position 12, which serves as a small flexible region between ring B and C, and is one of among the 5 positively charged residues (K12, K22, K34, H27, […]) of nisin A that contributes to its cationic nature and its attraction to the cell envelope.
A general note: In agar diffusion tests the substance spreads into inoculated agar from a disc or well.

The subject of a further test is Thermus scotoductus SE-1. Described as above. The following applies: zone diameter relative to Nisin A wild type (100). The procedure:
as §3, §4

Regarding `C=C(NC(=O)[C@@H](NC(=O)[C@H](Cc1c[nH]cn1)NC(=O)[C@@H](NC(=O)[C@H](CO)NC(=O)[C@@H]1CS[C@@H](C)[C@H]2NC(=O)[C@H](C)NC(=O)[C@H](NC(=O)[C@H](CCCCN)NC(=O)[C@H](CCSC)NC(=O)[C@H](CC(N)=O)NC(=O)[C@@H]3CS[C@@H](C)[C@@H](NC(=O)[C@H](CCCCN)NC(=O)[C@@H]4CS[C@@H](C)[C@@H](NC(=O)[C@@H]5CSC[C@@H](NC(=O)/C(=C/C)NC(=O)[C@@H](N)[C@@H](C)CC)C(=O)N[C@@H]([C@@H](C)CC)C(=O)NC(=C)C(=O)N[C@@H](CC(C)C)C(=O)N5)C(=O)N5CCC[C@H]5C(=O)NCC(=O)N4)C(=O)NCC(=O)N[C@@H](C)C(=O)N[C@@H](CC(C)C)C(=O)N[C@@H](CCSC)C(=O)NCC(=O)N3)[C@H](C)SC[C@H](NC2=O)C(=O)N[C@@H](CCC(N)=O)C(=O)N1)[C@@H](C)CC)C(C)C)C(=O)N[C@@H](CCCCN)C(=O)O` [H27Q], the “fold better activity than nisin A” value with T. rehai is 8 fold; in the test with T. aquaticus, 14 fold; in the test with T. thermophilus HB27 it was 8 fold; in the test on T. oshimai, 8 fold. Besides, the MIC against T. rehai is 3.2 µg/L and 0.000975 µM; against T. aquaticus, 3.26 µg/L and 0.000975 µM; in the test on T. thermophilus HB27 it was 3.2 µg/L and 0.000975 µM; with T. brockianus, 0.0156 µM (≈ 0.0522 µg/mL); against T. oshimai, 3.2 µg/L and 0.000975 µM; in the test on T. scotoductus SE-1 it was 0.0625 µM (≈ 0.209 µg/mL). In addition, the “% difference” value in test [1] is 136* (0.031) %. Besides, the “% of wild type” value in the test with Thermus scotoductus SE-1 is given as 115%.
For `C=C(NC(=O)[C@@H](NC(=O)[C@H](Cc1c[nH]cn1)NC(=O)[C@@H](NC(=O)[C@H](CO)NC(=O)[C@@H]1CS[C@@H](C)[C@H]2NC(=O)[C@H](C)NC(=O)[C@H](NC(=O)[C@H](CCCCN)NC(=O)[C@H](Cc3ccc(O)cc3)NC(=O)[C@H](CC(N)=O)NC(=O)[C@@H]3CS[C@@H](C)[C@@H](NC(=O)[C@H](CCCCN)NC(=O)[C@@H]4CS[C@@H](C)[C@@H](NC(=O)[C@@H]5CSC[C@@H](NC(=O)/C(=C/C)NC(=O)[C@@H](N)[C@@H](C)CC)C(=O)N[C@@H]([C@@H](C)CC)C(=O)NC(=C)C(=O)N[C@@H](CC(C)C)C(=O)N5)C(=O)N5CCC[C@H]5C(=O)NCC(=O)N4)C(=O)NCC(=O)N[C@@H](C)C(=O)N[C@@H](CC(C)C)C(=O)N[C@@H](CCSC)C(=O)NCC(=O)N3)[C@H](C)SC[C@H](NC2=O)C(=O)N[C@@H](Cc2c[nH]cn2)C(=O)N1)[C@@H](C)CC)C(C)C)C(=O)N[C@@H](CCCCN)C(=O)O` [M21Y], the MIC was 13.2 µg/L and 0.0039 µM against T. rehai; 6.6 µg/L and 0.00195 µM against T. aquaticus; 13.2 µg/L and 0.0039 µM in the test with T. thermophilus HB27; 0.0312 µM (≈ 0.106 µg/mL) in the test on T. brockianus; 13.2 µg/L and 0.0039 µM in the test on T. oshimai; 0.0625 µM (≈ 0.212 µg/mL) against T. scotoductus SE-1. In the test with T. thermophilus HB27, the “fold better activity than nisin A” value is “two-fold”. Moreover, in test [1], the “% difference” value is 115%. For the same compound, the “% of wild type” value in the test on Thermus scotoductus SE-1 was determined as 115%.
Regarding `C=C(NC(=O)[C@@H](NC(=O)[C@H](Cc1c[nH]cn1)NC(=O)[C@@H](NC(=O)[C@H](CO)NC(=O)[C@@H]1CS[C@@H](C)[C@H]2NC(=O)[C@H](C)NC(=O)[C@H](NC(=O)[C@H](CCCCN)NC(=O)[C@H](Cc3ccccc3)NC(=O)[C@H](CC(N)=O)NC(=O)[C@@H]3CS[C@@H](C)[C@@H](NC(=O)[C@H](CCCCN)NC(=O)[C@@H]4CS[C@@H](C)[C@@H](NC(=O)[C@@H]5CSC[C@@H](NC(=O)/C(=C/C)NC(=O)[C@@H](N)[C@@H](C)CC)C(=O)N[C@@H]([C@@H](C)CC)C(=O)NC(=C)C(=O)N[C@@H](CC(C)C)C(=O)N5)C(=O)N5CCC[C@H]5C(=O)NCC(=O)N4)C(=O)NCC(=O)N[C@@H](C)C(=O)N[C@@H](CC(C)C)C(=O)N[C@@H](CCSC)C(=O)NCC(=O)N3)[C@H](C)SC[C@H](NC2=O)C(=O)N[C@@H](Cc2c[nH]cn2)C(=O)N1)[C@@H](C)CC)C(C)C)C(=O)N[C@@H](CCCCN)C(=O)O` [M21F], the MIC turned out to be 0.000975 µM (≈ 0.00329 µg/mL) against T. rehai; 0.0039 µM (≈ 0.0131 µg/mL) with T. aquaticus; 0.0039 µM (≈ 0.0131 µg/mL) in the test with T. thermophilus HB27; 0.0078 µM (≈ 0.0263 µg/mL) against T. brockianus; 0.00195 µM (≈ 0.00657 µg/mL) against T. oshimai; 0.0312 µM (≈ 0.105 µg/mL) in the test with T. scotoductus SE-1. Further, the “% difference” value in test [1] is recorded as 125%. Further, in the test on Thermus scotoductus SE-1, the “% of wild type” value is listed as 106%.
For the compound `C=C(NC(=O)[C@@H](NC(=O)[C@H](Cc1c[nH]cn1)NC(=O)[C@@H](NC(=O)[C@H](CO)NC(=O)[C@@H]1CS[C@@H](C)[C@H]2NC(=O)[C@H](C)NC(=O)[C@H](NC(=O)[C@H](CCCCN)NC(=O)[C@H](CCSC)NC(=O)[C@H](CC(N)=O)NC(=O)[C@@H]3CS[C@@H](C)[C@@H](NC(=O)[C@H](CO)NC(=O)[C@@H]4CS[C@@H](C)[C@@H](NC(=O)[C@@H]5CSC[C@@H](NC(=O)/C(=C/C)NC(=O)[C@@H](N)[C@@H](C)CC)C(=O)N[C@@H]([C@@H](C)CC)C(=O)NC(=C)C(=O)N[C@@H](CC(C)C)C(=O)N5)C(=O)N5CCC[C@H]5C(=O)NCC(=O)N4)C(=O)NCC(=O)N[C@@H](C)C(=O)N[C@@H](CC(C)C)C(=O)N[C@@H](CCSC)C(=O)NCC(=O)N3)[C@H](C)SC[C@H](NC2=O)C(=O)N[C@@H](Cc2c[nH]cn2)C(=O)N1)[C@@H](C)CC)C(C)C)C(=O)N[C@@H](CCCCN)C(=O)O` [K12S], the minimal inhibitory concentration (MIC) against T. rehai is given as 0.0156 µM (≈ 0.0517 µg/mL); against T. aquaticus, 0.0312 µM (≈ 0.103 µg/mL); with T. thermophilus HB27, 0.0312 µM (≈ 0.103 µg/mL); in the test on T. brockianus, 0.0312 µM (≈ 0.103 µg/mL); with T. oshimai it was 0.0156 µM (≈ 0.0517 µg/mL); with T. scotoductus SE-1, 0.0312 µM (≈ 0.103 µg/mL). The “fold better activity than nisin A” value with T. scotoductus SE-1 came to 2 fold. The “% difference” value in test [1] is 125%. Further, in the test with Thermus scotoductus SE-1, the “% of wild type” value is given as 123%.
Regarding `C=C(NC(=O)[C@@H](NC(=O)[C@H](Cc1c[nH]cn1)NC(=O)[C@@H](NC(=O)[C@H](CO)NC(=O)[C@@H]1CS[C@@H](C)[C@H]2NC(=O)[C@H](C)NC(=O)[C@H](NC(=O)[C@H](CCCCN)NC(=O)[C@H](CCSC)NC(=O)[C@@H]3CCCN3C(=O)[C@@H]3CS[C@@H](C)[C@@H](NC(=O)[C@H](CCCCN)NC(=O)[C@@H]4CS[C@@H](C)[C@@H](NC(=O)[C@@H]5CSC[C@@H](NC(=O)/C(=C/C)NC(=O)[C@@H](N)[C@@H](C)CC)C(=O)N[C@@H]([C@@H](C)CC)C(=O)NC(=C)C(=O)N[C@@H](CC(C)C)C(=O)N5)C(=O)N5CCC[C@H]5C(=O)NCC(=O)N4)C(=O)NCC(=O)N[C@@H](C)C(=O)N[C@@H](CC(C)C)C(=O)N[C@@H](CCSC)C(=O)NCC(=O)N3)[C@H](C)SC[C@H](NC2=O)C(=O)N[C@@H](Cc2c[nH]cn2)C(=O)N1)[C@@H](C)CC)C(C)C)C(=O)N[C@@H](CCCCN)C(=O)O` [N20P], the MIC in the test with T. rehai turned out to be 0.0625 µM (≈ 0.209 µg/mL); in the test on T. aquaticus, 0.0156 µM (≈ 0.0521 µg/mL); against T. thermophilus HB27, 0.0156 µM (≈ 0.0521 µg/mL); against T. brockianus, 0.0625 µM (≈ 0.209 µg/mL); against T. oshimai it was 0.0625 µM (≈ 0.209 µg/mL); against T. scotoductus SE-1, 0.125 µM (≈ 0.417 µg/mL). Also, the “% difference” value in test [1] is listed as 97%. Moreover, in the test on Thermus scotoductus SE-1, the “% of wild type” value came out at 115%.

What is called MIC is the lowest concentration found to suppress growth. The low end stands for greater potency, the high end for weaker potency.
